According to paper PMC11189555, “Aryl amino acetamides prevent Plasmodium falciparum ring development via targeting the lipid-transfer protein PfSTART1” (Nature Communications, 2024):
Several values for one entry are separate records, joined by “and”; a condition that tells them apart may be missing. Identical values can stand only once.

Assays:
in vitro = conditions: human
[1] = test system: 3D7 P. falciparum parasites; assay: Growth inhibition assay (72 h, LDH activity); type: cell-based, Plasmodium falciparum; conditions: for (av-uRBC) / (DMSO-uRBC) x100: 3D7
Protocol: Parasite growth assays with inhibitory compounds were performed as per[11] and are fully described in the Supplementary Information. […]
Growth inhibition assays. Synchronised ring-stage parasites (0.3-0.6% parasitemia, 2% haematocrit) were grown for 72 h in a serial-dilution of the compound under […]
and compound 4. Note that M-833 was first purchased from MolPort (MolPort -002-267-916) then made in-house at WEHI: the differences observed in EC50s across experiments are attributed to the different batches of M -833. For some experiments, 0, 0.25 or 2.5 mM of glucosamine (GlcN) was also added. Experiments were set up in technical duplicates or triplicates. Following a freeze -thaw cycle, lactate dehydrogenase (LDH) activity was assessed as an indicator of parasite growt h 5. 30 μL of parasite culture was incubated for 30 min in the dark with 75 μL Malstat mixture (0.1 M Tris pH 9.0, 20 g/L lactic acid, pH 7.5, 0.2% Triton-X100, 0.5 g/L acetylpyridine adenine dinucleotide (APAD, Sigma), 200 μg/mL nitroblue tetrazolium (NBT; Sigma), 1 μg/mL phenozine ethosulfate (PES; Sigma)). Absorbance was then measured at 650 nm, transformed using the formula below, plotted against the logarithm of the concentrations, and a non-linear regression (log(inhibitor) vs. response, variable slope) was calculated using GraphPad Prism to assess the half-inhibitory […]
Growth inhibition % = (1 − average(sample)− average(uRBC)) ∗ 100 […]
The DMSO samples were also used to assess growth of parasite in the presence of 0.25 and 2.5 mM GlcN (normalised by DMSO in 0 mM GlcN). […]

With `Cc1cc(Cl)c(S(=O)(=O)N2CCCC2)cc1OCC(=O)NC1CCCCC1` [M-833] the CC50 (in vitro) was > 40 µM, the “sample/DMSO (growth inhibition vs DMSO, LDH)” value ([1]; 3D7, 0 mM GlcN, M-833 0.000508053 uM, biological replicates 1-3) was 0.3955 and the “sample/DMSO (growth inhibition vs DMSO, LDH)” value ([1]; 3D7, 0 mM GlcN, M-833 0.00152416 uM, biological replicates 1-4) was 3.899 and 0.6135 and 1.269 and -5.021. For the same molecule, the “sample/DMSO (growth inhibition vs DMSO, LDH)” value ([1]; 3D7, 0 mM GlcN, M-833 0.00457247 uM, biological replicates 1-4) was 7.9783 and -0.1897 and 1.9685 and -5.962, the “sample/DMSO (growth inhibition vs DMSO, LDH)” value ([1]; 3D7, 0 mM GlcN, M-833 0.0137174 uM, biological replicates 1-4) was 6.577 and 0.4933 and 7.305 and 4.539 and the “sample/DMSO (growth inhibition vs DMSO, LDH)” value ([1]; 3D7, 0 mM GlcN, M-833 0.0411523 uM, biological replicates 1-4) was 17.0189 and 4.351 and 25.6124 and 2.634. For the same molecule, the “sample/DMSO (growth inhibition vs DMSO, LDH)” value ([1]; 3D7, 0 mM GlcN, M-833 0.123457 uM, biological replicates 1-4) was 41.0894 and 22.2426 and 56.6492 and 25.1037, the “sample/DMSO (growth inhibition vs DMSO, LDH)” value ([1]; 3D7, 0 mM GlcN, M-833 0.37037 uM, biological replicates 1-4) was 84.744 and 69.3587 and 86.7673 and 75.1317 and the “sample/DMSO (growth inhibition vs DMSO, LDH)” value ([1]; 3D7, 0 mM GlcN, M-833 1.11111 uM, biological replicates 1-4) was 95.6718 and 89.236 and 91.7104 and 88.7258. The “sample/DMSO (growth inhibition vs DMSO, LDH)” value ([1]; 3D7, 0 mM GlcN, M-833 3.33333 uM, biological replicates 1-4) was 96.655 and 91.1143 and 93.0446 and 90.6646, the “Growth inhibition assay, NORMALISED” value ([1]; 3D7, 0 mM GlcN, conc 13.7174 nM) was 13.0746 and the “Growth inhibition assay, NORMALISED” value ([1]; 3D7, 0 mM GlcN, conc 41.1523 nM) was 31.4939. The “Growth inhibition assay, NORMALISED” value ([1]; 3D7, 0 mM GlcN, conc 123.457 nM) was 59.8439, the “Growth inhibition assay, NORMALISED” value ([1]; 3D7, 0 mM GlcN, conc 370.37 nM) was 84.7029 and the “Growth inhibition assay, NORMALISED” value ([1]; 3D7, 0 mM GlcN, conc 1111.11 nM) was 90.8825. For the same molecule, the “Growth inhibition assay, NORMALISED” value ([1]; 3D7, 0 mM GlcN, conc 3333.33 nM) was 92.758, the “Growth inhibition assay, NORMALISED” value ([1]; 3D7, 0 mM GlcN, conc 10000 nM) was 93.376 and the “sample/DMSO (growth inhibition vs DMSO, LDH)” value ([1]; 3D7, 0.25 mM GlcN, M-833 0.000508053 uM, biological replicates 1-3) was 3.472 and 0.2055. The “sample/DMSO (growth inhibition vs DMSO, LDH)” value ([1]; 3D7, 0.25 mM GlcN, M-833 0.00152416 uM, biological replicates 1-4) was 7.594 and 1.781 and -0.4107 and -3.683, the “sample/DMSO (growth inhibition vs DMSO, LDH)” value ([1]; 3D7, 0.25 mM GlcN, M-833 0.00457247 uM, biological replicates 1-4) was 11.6683 and 13.0152 and -3.5254 and -4.48 and the “sample/DMSO (growth inhibition vs DMSO, LDH)” value ([1]; 3D7, 0.25 mM GlcN, M-833 0.0137174 uM, biological replicates 1-4) was 18.8525 and 10.2866 and 0.5749 and 7.343. The “sample/DMSO (growth inhibition vs DMSO, LDH)” value ([1]; 3D7, 0.25 mM GlcN, M-833 0.0411523 uM, biological replicates 1-4) was 37.8978 and 20.6188 and 3.974 and 3.155, the “sample/DMSO (growth inhibition vs DMSO, LDH)” value ([1]; 3D7, 0.25 mM GlcN, M-833 0.123457 uM, biological replicates 1-4) was 60.1495 and 44.3886 and 19.2191 and 24.7586 and the “sample/DMSO (growth inhibition vs DMSO, LDH)” value ([1]; 3D7, 0.25 mM GlcN, M-833 0.37037 uM, biological replicates 1-4) was 90.2604 and 84.0393 and 70.7607 and 72.7038. For the same molecule, the “sample/DMSO (growth inhibition vs DMSO, LDH)” value ([1]; 3D7, 0.25 mM GlcN, M-833 1.11111 uM, biological replicates 1-4) was 94.6962 and 95.3762 and 89.746 and 88.7379, the “sample/DMSO (growth inhibition vs DMSO, LDH)” value ([1]; 3D7, 0.25 mM GlcN, M-833 3.33333 uM, biological replicates 1-4) was 94.1176 and 95.9927 and 91.6288 and 90.366 and the “Growth inhibition assay, NORMALISED” value ([1]; 3D7, 0.25 mM GlcN, conc 123.457 nM) was 65.6199 and 63.1151. The “Growth inhibition assay, NORMALISED” value ([1]; 3D7, 0.25 mM GlcN, conc 370.37 nM) was 87.6963 and 91.9897, the “Growth inhibition assay, NORMALISED” value ([1]; 3D7, 0.25 mM GlcN, conc 1111.11 nM) was 93.5707 and 96.2430 and the “Growth inhibition assay, NORMALISED” value ([1]; 3D7, 0.25 mM GlcN, conc 3333.33 nM) was 94.9648 and 97.4583. The “Growth inhibition assay, NORMALISED” value ([1]; 3D7, 0.25 mM GlcN, conc 10000 nM) was 98.3055 and 95.804, the “NORMALISED (growth inhibition, LDH absorbance vs DMSO and uRBC)” value ([1]; 3D7, 2.5 mM GlcN, M833 dilution point 1 of 10 (starting concentration 10 uM)) was 96.8148 and 98.7231 and 95.2456 and the “NORMALISED (growth inhibition, LDH absorbance vs DMSO and uRBC)” value ([1]; 3D7, 2.5 mM GlcN, M833 dilution point 2 of 10 from 10 uM start) was 95.7251 and 93.6187 and 97.3100. The “NORMALISED (growth inhibition, LDH absorbance vs DMSO and uRBC)” value ([1]; 3D7, 2.5 mM GlcN, M833 dilution point 3 of 10 from 10 uM start) was 96.9824 and 90.9335 and 96.6034, the “NORMALISED (growth inhibition, LDH absorbance vs DMSO and uRBC)” value ([1]; 3D7, 2.5 mM GlcN, M833 dilution point 4 of 10 from 10 uM start) was 93.881 and 84.8839 and 92.4066 and the “NORMALISED (growth inhibition, LDH absorbance vs DMSO and uRBC)” value ([1]; 3D7, 2.5 mM GlcN, M833 dilution point 5 of 10 from 10 uM start) was 83.487 and 63.7656 and 70.6904. For the same molecule, the “sample/DMSO (growth inhibition vs DMSO, LDH)” value ([1]; 3D7, 2.5 mM GlcN, M-833 0.000508053 uM, biological replicates 1-3) was -0.6607, the “sample/DMSO (growth inhibition vs DMSO, LDH)” value ([1]; 3D7, 2.5 mM GlcN, M-833 0.00152416 uM, biological replicates 1-4) was -1.11 and -0.7648 and -1.644 and -5.451 and the “sample/DMSO (growth inhibition vs DMSO, LDH)” value ([1]; 3D7, 2.5 mM GlcN, M-833 0.00457247 uM, biological replicates 1-4) was 2.378 and 5.032 and -5.671 and -4.085. The “sample/DMSO (growth inhibition vs DMSO, LDH)” value ([1]; 3D7, 2.5 mM GlcN, M-833 0.0137174 uM, biological replicates 1-4) was 17.2304 and 4.206 and -1.672 and 24.2341, the “sample/DMSO (growth inhibition vs DMSO, LDH)” value ([1]; 3D7, 2.5 mM GlcN, M-833 0.0411523 uM, biological replicates 1-4) was 38.9006 and 17.4059 and 1.86 and 27.5421 and the “sample/DMSO (growth inhibition vs DMSO, LDH)” value ([1]; 3D7, 2.5 mM GlcN, M-833 0.123457 uM, biological replicates 1-4) was 56.4218 and 44.1266 and 25.1289 and 54.0055. For the same molecule, the “sample/DMSO (growth inhibition vs DMSO, LDH)” value ([1]; 3D7, 2.5 mM GlcN, M-833 0.37037 uM, biological replicates 1-4) was 86.8658 and 83.833 and 67.9393 and 76.787, the “sample/DMSO (growth inhibition vs DMSO, LDH)” value ([1]; 3D7, 2.5 mM GlcN, M-833 1.11111 uM, biological replicates 1-4) was 92.389 and 94.7232 and 88.5258 and 88.1778 and the “sample/DMSO (growth inhibition vs DMSO, LDH)” value ([1]; 3D7, 2.5 mM GlcN, M-833 3.33333 uM, biological replicates 1-4) was 94.0803 and 95.4726 and 90.5741 and 88.9113. The “Growth (Abs) Normalised to DMSO” value ([1]; 3D7, M-833 0.0390625 uM) was 98.5985, the “Growth (Abs) Normalised to DMSO” value ([1]; 3D7, M-833 0.078125 uM) was 87.6094 and the “Growth (Abs) Normalised to DMSO” value ([1]; 3D7, M-833 0.15625 uM) was 73.0137. The “Growth (Abs) Normalised to DMSO” value ([1]; 3D7, M-833 0.3125 uM) was 46.3221, the “Growth (Abs) Normalised to DMSO” value ([1]; 3D7, M-833 0.625 uM) was 13.1941 and the “Growth (Abs) Normalised to DMSO” value ([1]; 3D7, M-833 1.25 uM) was 5.1955. The “Growth (Abs) Normalised to DMSO” value ([1]; 3D7, M-833 2.5 uM) was 3.473, the “Growth (Abs) Normalised to DMSO” value ([1]; 3D7, M-833 5 uM) was 2.75 and the “Growth (Abs) Normalised to DMSO” value ([1]; 3D7, M-833 10 uM) was 1.893. The “(av-uRBC) / (DMSO-uRBC) x100” value ([1]; conc. 3.04832 nM, Biological replicate 1 (2021-10-25)) was 99.6118, the “(av-uRBC) / (DMSO-uRBC) x100” value ([1]; conc. 3.04832 nM, Biological replicate 2 (2021-11-03)) was 102.365 and the “(av-uRBC) / (DMSO-uRBC) x100” value ([1]; conc. 9.14495 nM, Biological replicate 1 (2021-10-25)) was 98.5673. For the same molecule, the “(av-uRBC) / (DMSO-uRBC) x100” value ([1]; conc. 9.14495 nM, Biological replicate 2 (2021-11-03)) was 104.012.
